This passage reports Ki and melting point results from patent publication US7618961B2, “Inhibitors of 11-beta-hydroxy steroid dehydrogenase type 1” (Biovitrum AB, priority 2000, dated 2009).

The target of data set [1] is T1, human 11-β-hydroxysteroid dehydrogenase type-1 enzyme (11-β-HSD1) (Homo sapiens, UniProt P28845).
T1 construct: made in house; host or cells: Pichia pastoris
Put plainly: Scintillation proximity assay: human 11-β-HSD1 enzyme assay. It is filed as biochemical. Particulars: Ki calculated from IC50 (Cheng Prushoff). An excerpt: [1, 2(n)-^3H]-cortisone was purchased from Amersham Pharmacia Biotech. Anti-cortisol monoclonal mouse antibody, clone 6D6.7 was obtained from Immunotech and Scintillation proximity assay (SPA) beads coated with monoclonal antimouse antibodies were from Amersham Pharmacia Biotech. NADPH, tetrasodium salt was from Calbiochem and glucose-6-phosphate (G-6-P) was supplied by Sigma. The human 11-β-hydroxysteroid dehydrogenase type-1 enzyme (11-β-HSD1) was expressed in Pichia pastoris. 18-β-glycyrrhetinic acid (GA) was obtained from Sigma. The serial dilutions of the compounds were performed on a Tecan Genesis RSP 150.
Compounds to be tested were dissolved in DMSO (1 mM) and diluted in 50 mM Tris-HCl, pH 7.2 containing 1 mM EDTA.
The multiplication of plates was done on a WallacQuadra. The amount of the product [^3H]-cortisol, bound to the beads was determined in a Packard, Top Count microplate liquid scintillation counter.
The 11-β-HSD1 enzyme assay was carried out in 96 well microtiter plates (Packard, Optiplate) in a total well volume of 220 μL and contained 30 mM Tris-HCl, pH 7.2 with 1 mM EDTA, a substrate mixture tritiated Cortisone/NADPH (175 nM/181 μM), G-6-P (1 mM) and inhibitors in serial dilutions (9 to 0.15 μM). Reactions were initiated by the addition of human 11-β-HSD1, either as Pichia pastoris cell homogenate or microsomes prepared from Pichia pastoris (the final amount of enzyme used was varied between 0.057 to 0.11 mg/mL). Following mixing, the plates were shaken for 30 to 45 minutes at room temperature. The reactions were terminated with 10 μL 1 mM GA stop solution. Monoclonal mouse antibody was then added (10 μL of 4 μM) followed by 100 μL of SPA beads (suspended according to the manufacturers instructions). Appropriate controls were set up by omitting the 11-β-HSD1 to obtain the non-specific binding (NSB) value.
The plates were covered with plastic film and incubated on a shaker for 30 minutes, at room temperature, before counting. The amount of [^3H]-cortisol, bound to the beads was determined in a microplate liquid scintillation counter.
The calculation of the Ki values for the inhibitors was performed by use of Activity Base. The Ki value is calculated from IC50 and the Km value is calculated using the Cheng Prushoff equation (with reversible inhibition that follows the Michaelis-Menten equation): […] [Cheng, Y. C.; Prushoff, W. H. Biochem. Pharmacol. 1973, 22, 3099-3108]. The IC50 is measured experimentally in an assay wherein the decrease of the turnover of cortisone to cortisol is dependent on the inhibition potential of each substance. The Ki values of the compounds of the present invention for the 11-β-HSD1 enzyme lie typically between about 10 nM and about 10 μM. Illustrative of the invention, the following Ki values have been determined in the human 11-β-HSD1 enzyme assay (see Table 1): […]

For orientation: Ki means the dissociation constant of the complex between target and ligand, obtained from inhibition or displacement. As usually defined, the melting point is the temperature, or range, at which the solid turns liquid.

SMILES strings stand for the structures.

T1 sequence (P28845 whole entry): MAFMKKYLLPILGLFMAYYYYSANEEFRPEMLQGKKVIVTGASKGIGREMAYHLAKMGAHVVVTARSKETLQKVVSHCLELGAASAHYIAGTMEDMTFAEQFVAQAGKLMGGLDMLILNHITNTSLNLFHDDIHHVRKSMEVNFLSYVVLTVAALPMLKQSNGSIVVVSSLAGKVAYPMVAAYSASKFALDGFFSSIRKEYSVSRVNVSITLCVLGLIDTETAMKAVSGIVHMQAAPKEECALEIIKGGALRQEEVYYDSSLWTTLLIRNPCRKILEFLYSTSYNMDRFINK

Consider `CCOC(=O)Cc1csc(NS(=O)(=O)c2cc(C)c(Cl)cc2Cl)n1` [Example 1A, Ethyl (2-{[(2,4-dichloro-5-methylphenyl)sulfonyl]amino}-1,3-thiazol-4-yl)acetate], for which the Ki in data set [1] is 32 nM.
With `O=C(Cc1csc(NS(=O)(=O)c2c(Cl)cc(Cl)cc2Cl)n1)N1CCOCC1` [Example 149A, 2,4,6-Trichloro-N-{4-[2-(4-morpholinyl)-2-oxoethyl]-1,3-thiazol-2-yl}benzenesulfonamide], in data set [1], the Ki was 51 nM.
Still for that read-out and setting: with `O=C(Cc1csc(NS(=O)(=O)c2ccc(-c3ccccc3)cc2)n1)N1CCOCC1` [Example 151A, N-{4-[2-(4-morpholinyl)-2-oxoethyl]-1,3-thiazol-2-yl}[1,1′-biphenyl]-4-sulfonamide] the figure was 21 nM.
As to `CCCC(=O)Cc1csc(NS(=O)(=O)c2cccc(Cl)c2C)n1` [Example 179A, 3-Chloro-2-methyl-N-[4-(2-oxopentyl)-1,3-thiazol-2-yl]benzenesulfonamide], the Ki in data set [1] was 14 nM.
Still for that read-out and setting: next, `Cc1c(Cl)cccc1S(=O)(=O)Nc1nc(CCO)cs1` [Example 181A, 3-Chloro-N-[4-(2-hydroxyethyl)-1,3-thiazol-2-yl]-2-methylbenzenesulfonamide]: 53 nM; `Cc1c(Cl)cccc1S(=O)(=O)Nc1nc(CCOc2cccnc2)cs1` [Example 189A, 3-Chloro-2-methyl-N-{4-[2-(3-pyridinyloxy)ethyl]-1,3-thiazol-2-yl}benzenesulfonamide]: 299 nM.
As to `Cc1c(Cl)cccc1S(=O)(=O)Nc1nc(CCN2CCOCC2)cs1.Cl` [Example 204A, 3-Chloro-2-methyl-N-{4-[2-(4-morpholinyl)ethyl]-1,3thiazol-2-yl}benzenesulfonamide hydrochloride], the melting point lay in the range of 197 to 198 °C. For the same molecule, the Ki in data set [1] was 91 nM.
